Measured values published in patent US10471139B2, “Toll-like receptor agonists” (The University of Kansas, priority 2013, dated 2019).
Like-named read-outs stand apart in the source and are kept apart here. Each block holds one compound with its values, some of them ahead of it.

Columns and labels:
human TLR7 = target: T1, human TLR7 (Homo sapiens, UniProt Q9NYK1); test: Human TLR7 reporter gene assay (NF-κB induction), HEK-Blue-7 cells; format: cell-based; conditions: for hTLR7-agonistic Activity (EC50): human TLR7-specific reporter gene assay, Inactive = no activity up to 500 μg/mL
T1 construct: expressed in transfected cells; host or cells: HEK293 (HEK-Blue-7)
T1 sequence (Q9NYK1 27-1049): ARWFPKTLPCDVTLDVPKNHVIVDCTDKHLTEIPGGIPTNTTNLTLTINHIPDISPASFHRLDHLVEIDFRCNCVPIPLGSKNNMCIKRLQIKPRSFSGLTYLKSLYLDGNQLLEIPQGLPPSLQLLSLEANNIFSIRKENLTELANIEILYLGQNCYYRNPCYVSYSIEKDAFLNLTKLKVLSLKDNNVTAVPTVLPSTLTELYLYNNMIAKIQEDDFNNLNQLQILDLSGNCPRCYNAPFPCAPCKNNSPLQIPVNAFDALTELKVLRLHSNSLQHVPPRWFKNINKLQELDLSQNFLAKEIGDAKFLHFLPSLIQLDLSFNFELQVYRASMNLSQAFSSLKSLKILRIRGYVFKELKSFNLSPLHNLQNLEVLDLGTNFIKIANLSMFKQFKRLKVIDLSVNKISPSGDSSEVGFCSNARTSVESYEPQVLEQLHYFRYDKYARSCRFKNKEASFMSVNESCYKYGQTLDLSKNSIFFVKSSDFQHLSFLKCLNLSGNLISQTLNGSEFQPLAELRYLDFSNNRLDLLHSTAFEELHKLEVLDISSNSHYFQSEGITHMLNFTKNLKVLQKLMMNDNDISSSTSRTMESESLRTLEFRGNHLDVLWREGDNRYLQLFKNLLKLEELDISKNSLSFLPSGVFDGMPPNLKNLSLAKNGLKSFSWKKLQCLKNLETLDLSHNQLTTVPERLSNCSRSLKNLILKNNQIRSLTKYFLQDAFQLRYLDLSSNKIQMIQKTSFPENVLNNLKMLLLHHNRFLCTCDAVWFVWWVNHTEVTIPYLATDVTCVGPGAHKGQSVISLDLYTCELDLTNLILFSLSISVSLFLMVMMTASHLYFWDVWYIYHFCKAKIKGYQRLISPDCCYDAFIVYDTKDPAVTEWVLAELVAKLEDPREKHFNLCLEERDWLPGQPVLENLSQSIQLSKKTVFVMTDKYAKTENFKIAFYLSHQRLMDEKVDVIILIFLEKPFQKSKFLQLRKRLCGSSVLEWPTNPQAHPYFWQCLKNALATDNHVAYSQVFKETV
Source text: (§1) Human TLR-7/-8 Reporter Gene Assays (NF-κB Induction).
(§2) The induction of NF-κB was quantified using HEK-Blue-7 (hTLR7-specific) and HEK-Blue-8 (hTLR8-specific) cells. HEK293 cells stably co-transfected with human TLR7 or human TLR8, MD2, and secreted alkaline phosphatase (sAP), were maintained in HEK-Blue™ Selection medium containing zeocin and normocin. Stable expression of secreted alkaline phosphatase (sAP) under control of NF-κB/AP-1 promoters is inducible by appropriate TLR agonists, and extracellular sAP in the supernatant is proportional to NF-κB induction.
(§3) HEK293 cells stably co-transfected with the appropriate hTLR (or NOD) and secreted alkaline phosphatase (sAP) were maintained in HEK-Blue™ Selection medium. Stable expression of secreted alkaline phosphatase (sAP) under control of NF-κB/AP-1 promoters is inducible by appropriate TLR/NOD agonists, and extracellular sAP in the supernatant is proportional to NF-κB induction.

human TLR8 = target: T2, human TLR8 (Homo sapiens, UniProt Q9NR97); test: Human TLR8 reporter gene assay (NF-κB induction), HEK-Blue-8 cells; format: cell-based
T2 construct: expressed in transfected cells; host or cells: HEK293 (HEK-Blue-8)
T2 sequence (Q9NR97 27-1041): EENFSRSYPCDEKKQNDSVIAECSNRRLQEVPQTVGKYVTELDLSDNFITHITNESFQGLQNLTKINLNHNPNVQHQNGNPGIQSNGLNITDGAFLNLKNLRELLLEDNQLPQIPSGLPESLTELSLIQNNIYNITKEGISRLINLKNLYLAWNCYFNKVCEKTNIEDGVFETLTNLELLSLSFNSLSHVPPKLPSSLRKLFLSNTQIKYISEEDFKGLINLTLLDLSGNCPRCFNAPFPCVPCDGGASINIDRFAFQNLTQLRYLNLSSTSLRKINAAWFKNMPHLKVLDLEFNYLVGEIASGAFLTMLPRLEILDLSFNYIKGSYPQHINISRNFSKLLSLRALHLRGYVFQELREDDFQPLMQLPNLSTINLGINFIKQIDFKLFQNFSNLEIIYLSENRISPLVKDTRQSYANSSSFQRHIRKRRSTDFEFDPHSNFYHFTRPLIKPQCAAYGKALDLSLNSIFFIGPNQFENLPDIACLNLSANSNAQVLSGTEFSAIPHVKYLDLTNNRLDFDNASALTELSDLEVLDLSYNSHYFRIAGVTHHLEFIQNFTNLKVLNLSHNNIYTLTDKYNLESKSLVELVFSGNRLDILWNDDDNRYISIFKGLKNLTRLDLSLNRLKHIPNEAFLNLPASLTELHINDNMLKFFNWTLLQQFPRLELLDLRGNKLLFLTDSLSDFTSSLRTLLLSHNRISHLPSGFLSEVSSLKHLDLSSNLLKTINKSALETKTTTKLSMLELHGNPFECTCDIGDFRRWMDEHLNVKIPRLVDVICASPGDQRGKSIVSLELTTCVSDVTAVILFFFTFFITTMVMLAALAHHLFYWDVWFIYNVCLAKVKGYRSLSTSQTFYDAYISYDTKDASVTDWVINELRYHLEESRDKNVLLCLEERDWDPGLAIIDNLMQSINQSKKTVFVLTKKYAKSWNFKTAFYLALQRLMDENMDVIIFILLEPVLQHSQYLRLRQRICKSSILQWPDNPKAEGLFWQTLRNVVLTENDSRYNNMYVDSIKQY
Source text: as §1, §2, §3

[1] = human TLR 8-specific reporter gene assays
[2] = human TLR 8-specific reporter gene assays, read-out: hTLR8 Agonistic Activity (EC50)
[3] = primary screens, read-out: TLR8-agonistic activity EC50

SMILES: CCCCc1nc2c(N)nc3ccccc3c2n1Cc1ccccc1 [1-benzyl-2-butyl-1H-imidazo[4,5-c]quinolin-4-amine, reference compound]
EC50 (human TLR7; primary screen, read-out: TLR7-specific agonistic activity EC50): 0.06 µM

SMILES: CCCCc1nc2c(NC(C)=O)nccc2n1Cc1ccccc1 [Compound 6a, N-(1-Benzyl-2-butyl-1H-imidazo[4,5-c]pyridin-4-yl)acetamide]
hTLR7-agonistic Activity (EC50) (human TLR7): Inactive^a
TLR7-specific agonistic activity EC50 (human TLR7; primary screen): complete abrogation of activity

SMILES: CCCCc1nc2c(NC(=O)CCC)nccc2n1Cc1ccccc1 [Compound 6b, N-(1-Benzyl-2-butyl-1H-imidazo[4,5-c]pyridin-4-yl) butyramide]
hTLR7-agonistic Activity (EC50) (human TLR7): Inactive
TLR7-specific agonistic activity EC50 (human TLR7; primary screen): complete abrogation of activity

SMILES: CCCCNc1nccc2c1nc(CCCC)n2Cc1ccccc1 [Compound 11a, 1-Benzyl-N,2-dibutyl-1H-imidazo[4,5-c]pyridin-4-amine]
hTLR7-agonistic Activity (EC50) (human TLR7): Inactive

SMILES: CCCCc1nc2c(NCc3ccccc3)nccc2n1Cc1ccccc1 [Compound 11b, N,1-Dibenzyl-2-butyl-1H-imidazo[4,5-c]pyridin-4-amine]
hTLR7-agonistic Activity (EC50) (human TLR7): Inactive

SMILES: CCCCC1(O)C(N)=Nc2ccccc21 (stereo not drawn) [Compound A5, 2-amino-3-butyl-3H-indol-3-ol]
hTLR8 Agonistic Activity (EC50) (human TLR8; [1]): Inactive
TLR8-agonistic activity EC50 (human TLR8; primary screens): inactive

SMILES: CCCCn1c(N)nc2ccccc21 [Compound A8a, 1-butyl-1H-benz[d]imidazol-2-amine]
EC50 (human TLR8; [2]): 7.3 µM

SMILES: Nc1nc2ccccc2n1Cc1ccccc1 [Compound A8d, 1-Benzyl-1H-benzo[d]imidazol-2-amine]
hTLR8 Agonistic Activity (EC50) (human TLR8; [1]): Inactive

SMILES: NCc1cccc(Cn2c(N)nc3ccccc32)c1 [Compound A8f, 1-(3-(aminomethyl)benzyl)-1H-benzo[d]imidazol-2-amine]
hTLR8 Agonistic Activity (EC50) (human TLR8; [1]): Inactive

SMILES: CCCCOC(=O)n1c(N)nc2ccccc21 [Compound A9, butyl 2-amino-1H-benzo[d]imidazole-1-carboxylate]
hTLR8 Agonistic Activity (EC50) (human TLR8; [1]): Inactive
TLR8-agonistic activity EC50 (human TLR8; primary screens): completely abrogated activity

SMILES: CCCCCn1c(NC(C)=O)nc2ccccc21 [Compound A10, N-(1-pentyl-1H-benzo[d]imidazol-2-yl)acetamide]
hTLR8 Agonistic Activity (EC50) (human TLR8; [1]): Inactive
TLR8-agonistic activity EC50 (human TLR8; primary screens): completely abrogated activity

SMILES: CCCCCn1c(N)nc2ncccc21 [Compound A27a, 1-Pentyl-1H-imidazo[4,5-b]pyridin-2-amine]
hTLR8 Agonistic Activity (EC50) (human TLR8; [1]): Inactive

SMILES: CCCCCn1c(N)nc2cnccc21 [Compound A27b, 1-Pentyl-1H-imidazo[4,5-c]pyridin-2-amine]
hTLR8 Agonistic Activity (EC50) (human TLR8; [1]): Inactive

SMILES: CCCCCn1c(N)nc2ccncc21 [Compound A27c, 3-Pentyl-3H-imidazo[4,5-c]pyridin-2-amine]
hTLR8 Agonistic Activity (EC50) (human TLR8; [1]): Inactive

SMILES: CCCCCn1c(N)nc2cccnc21 [Compound A27d, 3-Pentyl-3H-imidazo[4,5-b]pyridin-2-amine]
hTLR8 Agonistic Activity (EC50) (human TLR8; [1]): Inactive

SMILES: CCCCCn1c(N)nc2cc(C)ccc21 [Compound A31b, 5-Methyl-1-pentyl-1H-benzo[d]imidazol-2-amine]
EC50 (human TLR8; [2]): 4.57 µM

SMILES: CCCCCn1c(N)nc2ccc(C)cc21 [Compound A31c, 6-Methyl-1-pentyl-1H-benzo[d]imidazol-2-amine]
EC50 (human TLR8; [2]): 7.21 µM

SMILES: CCCCCn1c(N)nc2cccc(C)c21 [Compound A31d, 7-Methyl-1-pentyl-1H-benzo[d]imidazol-2-amine]
EC50 (human TLR8; [2]): 6.61 µM

SMILES: CCCCCn1c(N)nc2c(C(F)(F)F)cccc21 [Compound A31h, 1-Pentyl-4-(trifluoromethyl)-1H-benzo[d]imidazol-2-amine]
hTLR8 Agonistic Activity (EC50) (human TLR8; [1]): Inactive

SMILES: CCCCCn1c(N)nc2c(N(C)C)cccc21 [Compound A31k, N^4,N^4-demethyl-1-pentyl-1H-benzo[d]imidazole-2,4-diamine]
EC50 (human TLR8; [2]): 7.12 µM

SMILES: CCCCCn1c(N)nc2c([N+](=O)[O-])cccc21 [Compound A39, 4-Nitro-1-pentyl-1H-benzoimidazol-2-ylamine]
hTLR8 Agonistic Activity (EC50) (human TLR8; [1]): Inactive
TLR8-agonistic activity EC50 (human TLR8; primary screens): inactive

Other lines, results leading:

EC50 (human TLR8; [3]): 3.23 µM
SMILES: CCCCCn1c(N)nc2ccccc21 [Compound A8b, 1-Pentyl-1H-benzo[d]imidazol-2-amine]

EC50 (human TLR8; [2]): 3.96 µM
SMILES: CCCCCCn1c(N)nc2ccccc21 [Compound A8c, 1-Hexyl-1H-benzo[d]imidazol-2-amine]

hTLR8 Agonistic Activity (EC50) (human TLR8; [1]): Inactive
SMILES: CCCCCn1c(N)nc2cc3ccccc3cc21 [Compound A13, 1-Pentyl-1H-naphtho[2,3-d]imidazol-2-amine]

hTLR8 Agonistic Activity (EC50) (human TLR8; [1]): Inactive
SMILES: CCCCCn1c(N)nc2ccc3ccccc3c21 [Compound A18, 1-pentyl-1H-naphtho[1,2-d]imidazol-2-amine]

EC50 (human TLR8; [3]): 3.16 µM
SMILES: CCCCCn1c(N)nc2c3ccccc3ccc21 [Compound A23, 3-Pentyl-3H-naphtho[1,2-d]imidazol-2-amine]

EC50 (human TLR8; [3]): 3.74 µM
SMILES: CCCCCn1c(N)nc2c(OC)cccc21 [Compound A31e, 4-Methoxy-1-pentyl-1H-benzo[d]imidazol-2-amine]

hTLR8 Agonistic Activity (EC50) (human TLR8; [1]): Inactive
SMILES: CCCCCn1c(N)nc2c(F)cccc21 [Compound A31f, 4-Fluoro-1-pentyl-1H-benzo[d]imidazol-2-amine]

hTLR8 Agonistic Activity (EC50) (human TLR8; [1]): Inactive
SMILES: CCCCCn1c(N)nc2c(Cl)cccc21 [Compound A31g, 4-Chloro-1-pentyl-1H-benzo[d]imidazol-2-amine]

hTLR8 Agonistic Activity (EC50) (human TLR8; [1]): Inactive
SMILES: CCCCCn1c(N)nc2c(Br)cccc21 [Compound A31i, 4-Bromo-1-pentyl-1H-benzo[d]imidazol-2-amine]

EC50 (human TLR8; [2]): 1.65 µM
SMILES: CCCCCn1c(N)nc2c(CC)cccc21 [Compound A31j, 4-Ethyl-1-pentyl-1H-benzo[d]imidazol-2-amine]

hTLR8 Agonistic Activity (EC50) (human TLR8; [1]): Inactive
TLR8-agonistic activity EC50 (human TLR8; primary screens): abrogated activity
SMILES: CCCCCn1c(N)nc2c(-c3ccccc3)cccc21 [Compound A31l, 1-pentyl-4-phenyl-1H-benzo[d]imidazol-2-amine]

hTLR8 Agonistic Activity (EC50) (human TLR8; [1]): Inactive
TLR8-agonistic activity EC50 (human TLR8; primary screens): abrogated activity
SMILES: CCCCCn1c(N)nc2c(Cc3ccccc3)cccc21 [Compound A31m, 4-benzyl-1-pentyl-1H-benzo[d]imidazol-2-amine]

hTLR8 Agonistic Activity (EC50) (human TLR8; [1]): Inactive
TLR8-agonistic activity EC50 (human TLR8; primary screens): abrogated activity
SMILES: CCCCCn1c(N)nc2c(OCc3ccccc3)cccc21 [Compound A35, 4-Benzyloxy-1-pentyl-1H-benzoimidazol-2-ylamine]

EC50 (human TLR8; [2]): 5.01 µM
SMILES: CCCCCn1c(N)nc2c(O)cccc21 [Compound A36, 2-Amino-1-pentyl-1H-benzoimidazol-4-ol]

EC50 (human TLR8; [2]): 6.6 µM
SMILES: CCCCCn1c(N)nc2c(N)cccc21 [Compound A40, 1-Pentyl-1H-benzoimidazole-2,4-diamine]
